Source: patent publication US8415293B2, “Peptide mediators of cholesterol efflux” (The Regents of the University of California, priority 2008, dated 2013)
Square brackets hold non-standard residues; d marks the D form. Ends that are not written are not given here.

Key:
ABCA1 [1] = target: T1, ABCA1 (Mus musculus, UniProt P41233); test: Cholesterol efflux from [3H]cholesterol-labeled J774 macrophages ± cAMP (upregulates ABCA1); type: cell-based; details: for % cholesterol efflux (8 hours): J774 macrophages; for cholesterol efflux from cells induced for the ABCA1 response (in words): lipid-free peptide 30 μg/ml, 8 h, +cAMP compared to no cAMP
T1 construct: cell lines in which cholesterol efflux can be enhanced using a cAMP analog that up-regulates ABCA1 protein expression (e.g., J774 macrophages); endogenous in cells; host or cells: J774 macrophages
T1 sequence (P41233 whole entry): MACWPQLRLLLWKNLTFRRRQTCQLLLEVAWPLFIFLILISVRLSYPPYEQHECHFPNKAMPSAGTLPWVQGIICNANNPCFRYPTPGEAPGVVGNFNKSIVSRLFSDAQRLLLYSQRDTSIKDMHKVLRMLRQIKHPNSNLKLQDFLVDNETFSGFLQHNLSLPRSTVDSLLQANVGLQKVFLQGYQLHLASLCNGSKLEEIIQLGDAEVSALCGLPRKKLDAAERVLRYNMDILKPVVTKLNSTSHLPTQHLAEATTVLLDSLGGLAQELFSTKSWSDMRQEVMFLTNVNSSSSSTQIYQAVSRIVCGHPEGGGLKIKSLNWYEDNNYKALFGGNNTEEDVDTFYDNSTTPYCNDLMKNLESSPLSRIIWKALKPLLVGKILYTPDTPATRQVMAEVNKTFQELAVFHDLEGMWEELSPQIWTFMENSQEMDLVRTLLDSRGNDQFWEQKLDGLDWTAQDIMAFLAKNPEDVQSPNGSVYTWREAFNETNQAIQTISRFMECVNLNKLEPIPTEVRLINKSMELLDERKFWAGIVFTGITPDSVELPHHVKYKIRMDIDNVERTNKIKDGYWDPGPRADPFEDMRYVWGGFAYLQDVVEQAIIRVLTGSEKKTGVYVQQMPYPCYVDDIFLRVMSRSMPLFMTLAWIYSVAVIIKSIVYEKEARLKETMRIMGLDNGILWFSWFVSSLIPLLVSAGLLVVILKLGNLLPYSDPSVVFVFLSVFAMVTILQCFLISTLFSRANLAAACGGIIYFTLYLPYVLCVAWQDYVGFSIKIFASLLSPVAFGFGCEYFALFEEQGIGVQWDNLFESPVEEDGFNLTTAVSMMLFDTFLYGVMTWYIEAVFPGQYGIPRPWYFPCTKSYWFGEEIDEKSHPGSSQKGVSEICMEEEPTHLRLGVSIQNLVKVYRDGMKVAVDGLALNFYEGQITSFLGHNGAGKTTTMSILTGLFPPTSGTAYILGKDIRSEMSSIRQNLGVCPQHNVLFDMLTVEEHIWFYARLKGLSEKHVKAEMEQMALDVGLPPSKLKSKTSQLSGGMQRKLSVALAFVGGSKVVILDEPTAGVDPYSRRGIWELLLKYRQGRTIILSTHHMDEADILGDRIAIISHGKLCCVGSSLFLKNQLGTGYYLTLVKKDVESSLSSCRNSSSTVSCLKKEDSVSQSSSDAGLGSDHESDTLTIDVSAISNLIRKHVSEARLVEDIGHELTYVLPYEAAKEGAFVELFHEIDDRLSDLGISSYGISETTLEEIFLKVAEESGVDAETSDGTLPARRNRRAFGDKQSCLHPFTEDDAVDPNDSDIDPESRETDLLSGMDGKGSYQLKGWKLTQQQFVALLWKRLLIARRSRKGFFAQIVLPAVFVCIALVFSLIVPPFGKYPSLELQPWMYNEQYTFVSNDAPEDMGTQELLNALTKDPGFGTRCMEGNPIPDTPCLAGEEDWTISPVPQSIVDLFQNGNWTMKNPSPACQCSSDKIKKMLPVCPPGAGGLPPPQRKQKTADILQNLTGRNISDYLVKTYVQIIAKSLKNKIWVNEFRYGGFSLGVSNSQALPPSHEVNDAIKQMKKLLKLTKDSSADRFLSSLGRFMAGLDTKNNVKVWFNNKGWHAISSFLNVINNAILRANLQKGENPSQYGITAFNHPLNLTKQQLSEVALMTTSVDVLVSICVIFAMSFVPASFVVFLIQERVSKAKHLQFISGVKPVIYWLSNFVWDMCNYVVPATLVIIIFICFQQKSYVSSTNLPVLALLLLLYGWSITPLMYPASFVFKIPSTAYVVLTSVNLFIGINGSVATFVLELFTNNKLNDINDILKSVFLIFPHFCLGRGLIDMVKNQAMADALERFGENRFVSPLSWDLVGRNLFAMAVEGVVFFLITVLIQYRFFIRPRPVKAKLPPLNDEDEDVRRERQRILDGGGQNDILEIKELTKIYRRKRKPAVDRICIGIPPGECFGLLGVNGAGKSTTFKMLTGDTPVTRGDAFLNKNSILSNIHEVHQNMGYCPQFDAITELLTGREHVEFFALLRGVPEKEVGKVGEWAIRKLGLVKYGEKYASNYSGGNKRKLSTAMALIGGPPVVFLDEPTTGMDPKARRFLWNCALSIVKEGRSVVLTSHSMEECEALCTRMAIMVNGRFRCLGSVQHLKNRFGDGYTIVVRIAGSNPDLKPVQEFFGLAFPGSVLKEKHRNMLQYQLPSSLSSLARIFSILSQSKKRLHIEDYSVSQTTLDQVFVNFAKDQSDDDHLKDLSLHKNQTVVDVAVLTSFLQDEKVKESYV
Excerpt: Suitable cholesterol efflux assays are described in, […] and Oda, M. N., Biochemistry, 41:2089-2096 (2002); Jia et al., Biochem. Biophys. Res. Common., 297:206-213 (2002). In some embodiments, a polypeptide known to mediate cholesterol efflux (e.g., helix 9/10 of Apo A-I) is used to screen for additional mediators of cholesterol efflux in a cell based assay. For example, cell lines in which cholesterol efflux can be enhanced using a cAMP analog that up-regulates ABCA1 protein expression (e.g., J774 macrophages) can conveniently be used to assess the ability of a polypeptide of the present invention to mediate cholesterol efflux. The cells are incubated with labeled cholesterol (e.g., [^3H]cholesterol) under conditions appropriate for cholesterol uptake by the cells. Thus, cAMP or cAMP analogs (e.g., CPT-cAMP) are incubated with the cells for a suitable time before the initiation of cellular cholesterol efflux, i.e., prior to contacting the cells with a test polypeptide. Measurement of labeled cholesterol appearing in the medium is used to determine the cholesterol efflux mediating activity of the test polypeptide. […] J774 cells plated on 24-well culture plates were labeled (48 h) with 1 μCi/ml of [^3H]cholesterol in 1% FBS. A cAMP analog was added (0.3 mM) to some wells (12-18 h) to up-regulate ABCA1 expression. Following cAMP treatment, cells were rinsed, and then exposed to peptide in serum-free medium. Panel A provides data showing the dependence of cholesterol efflux on concentration (lipid-free SEQ ID NO:2 peptide (squares) and lipid-free apolipoprotein(apo)A-I (circles)); cAMP-treated cells were used. The percentage of cellular [^3H]cholesterol that appeared in the medium at 8 h is shown, subtracting background efflux to serum-free medium alone. Values are means±SD; apoA-I, n=8; SEQ ID NO:2 peptide, n=3. Km values reflecting efficiency for cholesterol efflux stimulation were calculated (Prism 4 software) from concentration-dependence curves using the Michaelis-Menton equation and 4 h efflux data.

ABCA1 [2] = target: T1, ABCA1; test: as above; type: cell-based; details: concentration dependence
ABCA1 [3] = target: T1, ABCA1; test: Cholesterol efflux activity of peptides after exposure to acrolein (MPO-derived oxidation product), J774 macrophages + cAMP; type: cell-based; details: acrolein:peptide mole ratio 25:1, 18 h, 37° C.; efflux at 2 μg/ml
Experimental: Peptides corresponding to SEQ ID NO:2 and SEQ ID NO:12 were exposed to acrolein (acrolein:peptide mole ratio=25:1) for 18 h at 37° C. Control peptides were similarly incubated in the absence of acrolein. Control and acrolein-treated peptides were then dialyzed and used for cholesterol efflux experiments. […] J774 macrophages treated with cAMP, which up-regulates ABCA1, were used in both panels. Cholesterol efflux assays were conducted using peptides at 2 μg/ml serum free-medium.

[4] = Scaled = (Raw + 2.061)/4.484; Black and Mould 1991; cited from earlier work
[5] = system: HDL subpopulations in human plasma; test: preβ-1 HDL formation in human plasma (2D gel electrophoresis, apoA-I Western blot); type: biochemical; details: peptide 30 μg/ml (peptide:apoA-I mole ratio ~1:5), 5 minutes, 37° C.
Experimental: Peptide of the invention may also be screened for the ability to induce preβ-1 HDL formation in human plasma. In one example of such an analysis, a peptide to be tested is added to human plasma. Plasma with and without peptide are incubated and then evaluated, e.g., by agarose gel electrophoresis in the first dimension followed by native gradient gel electrophoresis in the second dimension to evaluate the population of HDL particles present in the human plasma samples.
Peptides corresponding to SEQ ID NO:2 were added to human plasma at a final concentration of 30 μg/ml (i.e. peptide:apoA-I mole ratio ˜1:5). Plasma with and without peptide were subsequently incubated for 5 minutes at 37° C. Following incubations, samples of plasma were subjected to agarose gel electrophoresis in the first dimension followed by native gradient gel electrophoresis in the second dimension. Proteins on resulting gels were transferred to nitrocellulose and analyzed by Western-blot analysis using an apoA-I antibody. The distribution of HDL subpopulations in plasma treated with vehicle alone (open bars), SEQ ID NO:2 peptide composed of all D-amino acids (intermediate shade), and SEQ ID NO:2 peptide composed of all L-amino acids (darkly shaded) is shown. […] Reductions of α-HDL subpopulations indicate that peptides specifically interact with distinct HDL species to generate preβ-1 apoA-I particles.

Compound: ELRDRLEAWLDLLRELLERL [N1154-10]
- % cholesterol efflux (8 hours) (ABCA1 [1]; + cAMP (ABCA1 upregulated)): 8.25 ± 0.33%
- % cholesterol efflux (8 hours) (ABCA1 [1]; no cAMP): 2.66 ± 0.41%
- % cholesterol efflux/4 hours (ABCA1 [2]; peptide 0.1 μg/ml): 0.58%
- % cholesterol efflux/4 hours (ABCA1 [2]; peptide 0.3 μg/ml): 1.00%
- % cholesterol efflux/4 hours (ABCA1 [2]; peptide 1.0 μg/ml): 2.12%
- % cholesterol efflux/4 hours (ABCA1 [2]; peptide 3.0 μg/ml): 5.25%
- % cholesterol efflux/4 hours (ABCA1 [2]; peptide 10 μg/ml): 4.15%
- % cholesterol efflux/4 hours (ABCA1 [2]; peptide 30 μg/ml): 3.70%
- effect of acrolein on cholesterol efflux activity (ABCA1 [3]): modest effects of acrolein

Compound: NCC(=O)O [Glycine]
- Hydrophobicity (scaled computational log(P)) [4]: 0.501

Compound: ELREKLEAWREAFEEFFARFKS [N257-11]
- % cholesterol efflux (8 hours) (ABCA1 [1]; + cAMP (ABCA1 upregulated)): 6.99 ± 1.4%
- % cholesterol efflux (8 hours) (ABCA1 [1]; no cAMP): 0.91 ± 0.1%

Compound: ELREKLEAWFELFAEFFARF (synthetic amphipathic alpha-helix peptide N356-6 ligand for ATP-binding cassette transporter A1 (ABCA1) having cholesterol efflux activity)
- concentration giving max. efflux (ABCA1 [1]; concentration dependence, cAMP treated cells): 3 µg/mL

Compound: ELREKLEAWFELFREFLERF ([dE][dL][dR][dE][dK][dL][dE][dA][dW][dF][dE][dL][dF][dR][dE][dF][dL][dE][dR][dF])
- change in HDL subpopulations in human plasma [5]: preferential increase in preβ-1 HDL

Compound: CSCC[C@H](N)C(=O)O [Methionine]
- Hydrophobicity (scaled computational log(P)) [4]: 0.738

Compound: CC(C)[C@H](N)C(=O)O [Valine]
- Hydrophobicity (scaled computational log(P)) [4]: 0.825

Compound: N[C@@H](Cc1ccc(O)cc1)C(=O)O [Tyrosine]
- Hydrophobicity (scaled computational log(P)) [4]: 0.880

Compound: N[C@@H](Cc1ccccc1)C(=O)O [Phenylalanine]
- Hydrophobicity (scaled computational log(P)) [4]: 1.00

Compound: C[C@H](N)C(=O)O [Alanine]
- Hydrophobicity (scaled computational log(P)) [4]: 0.616

Compound: ELREKLEAWFELFREFLERF [N965-8]
- % cholesterol efflux (8 hours) (ABCA1 [1]; + cAMP (ABCA1 upregulated)): 5.26 ± 0.95%
- % cholesterol efflux (8 hours) (ABCA1 [1]; no cAMP): 2.29 ± 0.16%
- % cholesterol efflux/4 hours (ABCA1 [2]; peptide 0.1 μg/ml): 0.15%
- % cholesterol efflux/4 hours (ABCA1 [2]; peptide 0.3 μg/ml): 0.52%
- % cholesterol efflux/4 hours (ABCA1 [2]; peptide 1.0 μg/ml): 1.72%
- % cholesterol efflux/4 hours (ABCA1 [2]; peptide 3.0 μg/ml): 4.60%
- % cholesterol efflux/4 hours (ABCA1 [2]; peptide 10 μg/ml): 3.62%
- % cholesterol efflux/4 hours (ABCA1 [2]; peptide 30 μg/ml): 3.66%
- effect of acrolein on cholesterol efflux activity (ABCA1 [3]): Acrolein greatly decreased the activity

Compound: ELREKLEAFFELFREFLERF (synthetic amphipathic alpha-helix peptide ligand for ATP-binding cassette transporter A1 (ABCA1) having cholesterol efflux activity) [SEQ ID NO:33]
- cholesterol efflux from cells induced for the ABCA1 response (in words) (ABCA1 [1]): relatively high-levels of cholesterol efflux

Compound: N[C@@H](Cc1c[nH]cn1)C(=O)O [Histidine]
- Hydrophobicity (scaled computational log(P)) [4]: 0.165

Compound: NCCCC[C@H](N)C(=O)O [Lysine]
- Hydrophobicity (scaled computational log(P)) [4]: 0.283

Compound: ELREKLEAWFELFREFLERFKS (synthetic amphipathic alpha-helix peptide ligand for ATP-binding cassette transporter A1 (ABCA1) having cholesterol efflux activity) [SEQ ID NO:31]
- stimulation of ABCA1 cholesterol efflux (in words) (ABCA1 [1]; lipid-free peptide, J774 macrophages ± cAMP): stimulates ABCA1 cholesterol efflux, similar to 20-mer SEQ ID NO:2 peptide

Compound: apoA-I: full-length apolipoprotein A-I, polypeptide comprising 243 amino acids, used lipid-free as comparator [reference compound]
- Km (ABCA1 [1]; lipid-free, cAMP-treated cells, 4 h efflux data, read-out: Km for cholesterol efflux stimulation, molar basis): 0.12 ± 0.02 µM
- Km for cholesterol efflux stimulation, mass basis (ABCA1 [1]; lipid-free, cAMP-treated cells, Michaelis-Menton fit of 4 h efflux data): 3.4 ± 0.6 µg/mL

Compound: C[C@@H](O)[C@H](N)C(=O)O [Threonine]
- Hydrophobicity (scaled computational log(P)) [4]: 0.450

Compound: CC[C@H](C)[C@H](N)C(=O)O [Isoleucine]
- Hydrophobicity (scaled computational log(P)) [4]: 0.943

Compound: NC(=O)C[C@H](N)C(=O)O [Asparagine]
- Hydrophobicity (scaled computational log(P)) [4]: 0.236

Compound: O=C(O)[C@@H]1CCCN1 [Proline]
- Hydrophobicity (scaled computational log(P)) [4]: 0.711

Compound: N[C@@H](CCC(=O)O)C(=O)O [Glutamate]
- Hydrophobicity (scaled computational log(P)) [4]: 0.043

Compound: N=C(N)NCCC[C@H](N)C(=O)O [Arginine]
- Hydrophobicity (scaled computational log(P)) [4]: 0.000

Compound: N[C@@H](Cc1c[nH]c2ccccc12)C(=O)O [Tryptophan]
- Hydrophobicity (scaled computational log(P)) [4]: 0.878

Compound: ELREKLEALFELFREFLERF (synthetic amphipathic alpha-helix peptide ligand for ATP-binding cassette transporter A1 (ABCA1) having cholesterol efflux activity) [SEQ ID NO:32]
- cholesterol efflux from cells induced for the ABCA1 response (in words) (ABCA1 [1]): relatively high-levels of cholesterol efflux
